From article PMC3495945, “Org 214007-0: A Novel Non-Steroidal Selective Glucocorticoid Receptor Modulator with Full Anti-Inflammatory Properties and Improved Therapeutic Index” (PLoS ONE, 2012)
Read-outs that look alike come from different tables or passages of the source.

Legend:
[1] = tested on: primary human whole blood cells; experiment: Human whole blood PMA/anti-CD28-induced cytokine release; assay type: cell-based; conditions: for IC50: read-out: IC50, PMA/anti-CD28-induced IL-5 release
Text: Hereafter, supernatant was carefully collected and tested at the most optimal dilution (predetermined by a titration study on control samples) in a human TNFα-specific ELISA (for the LPS stimulated samples) or in a human IL-5-specific or human G-CSF-specific ELISA (for the PMA/anti-CD28 stimulated samples) (Duoset, R&D systems USA).

GR = molecular target: T1, GR (Homo sapiens, UniProt P04150); experiment: CHO-GR B4.8 MMTV-luciferase induction of gene expression (agonistic); assay type: cell-based; parameters: expressed in transfected cells; conditions: for Max. eff., MMTV-luc induction: relative to maximal effect of prednisolone (100%)
T1 sequence (P04150 1-777): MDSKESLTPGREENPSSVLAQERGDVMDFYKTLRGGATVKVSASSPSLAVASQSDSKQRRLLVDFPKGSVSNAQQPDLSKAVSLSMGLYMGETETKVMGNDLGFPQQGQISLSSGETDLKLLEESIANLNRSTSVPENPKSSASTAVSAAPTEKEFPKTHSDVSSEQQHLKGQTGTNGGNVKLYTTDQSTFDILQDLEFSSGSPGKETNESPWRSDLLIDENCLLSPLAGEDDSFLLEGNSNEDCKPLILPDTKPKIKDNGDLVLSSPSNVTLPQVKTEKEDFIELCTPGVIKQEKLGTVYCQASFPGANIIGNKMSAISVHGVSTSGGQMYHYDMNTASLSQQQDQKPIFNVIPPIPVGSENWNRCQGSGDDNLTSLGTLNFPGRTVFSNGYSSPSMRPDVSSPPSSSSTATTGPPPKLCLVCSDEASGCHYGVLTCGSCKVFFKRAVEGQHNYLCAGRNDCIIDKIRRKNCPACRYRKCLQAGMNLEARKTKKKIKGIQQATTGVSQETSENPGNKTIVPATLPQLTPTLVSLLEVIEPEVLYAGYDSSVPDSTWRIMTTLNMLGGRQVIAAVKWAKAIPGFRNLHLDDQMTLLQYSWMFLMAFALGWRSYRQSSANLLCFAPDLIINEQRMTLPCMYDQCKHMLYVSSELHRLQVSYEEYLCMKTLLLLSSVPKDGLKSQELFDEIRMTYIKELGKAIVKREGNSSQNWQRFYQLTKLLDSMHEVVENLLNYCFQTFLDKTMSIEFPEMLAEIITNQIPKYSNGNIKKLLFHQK
Text: For monitoring both human steroid receptor agonistic as well as antagonistic activity of compounds, Chinese hamster ovary (CHO) K1 cells stably co-transfected with the specific human steroid receptor and its respective reporter construct were used (as previously described).
For human glucocorticoid receptor (GR)-specific activity CHO-GR B4.8 cells containing both recombinant human GR as well as a reporter construct consisting of the mouse mammary tumor virus (MMTV) promotor and the luciferase reporter gene, were used. Compound was incubated alone (in the agonistic setup) or with 50 nM dexamethasone (in the antagonistic setup) overnight. Hereafter, 200 µl medium was removed and 50 µl luciferine substrate solution from the LucLite luminescence kit (Packard, Meriden, USA) was added. […] Percentage maximal antagonistic efficacy was related to the maximal antagonistic efficacy of reference GR antagonist Org 34116. Similar procedures were followed for the other human steroid receptor assays (for more detailed information see Supportive Information) (SI text).
For human glucocorticoid receptor (GR)-specific activity CHO-GR B4.8 cells containing both recombinant human GR as well as a reporter construct consisting of the mouse mammary tumor virus (MMTV) promotor and the luciferase reporter gene, were used. Compound was incubated alone (in the agonistic setup) or with 50 nM dexamethasone (in the antagonistic setup) in microtiter white culture plates seeded with 2.4 x 10^4 cells / 200 µl Dulbecco’s MEM/Nutrient Mix F12 medium (Gibco) supplemented with 5% charcoal treated defined bovine calf serum supplement (DBCSS, Hyclone, Utah, USA), and 10 U/ml Penicillin-10μg/ml Streptomycin (GibcoBRL) overnight at 37°C in the dark under a humidified atmosphere flushed with 5% CO2 in air. Hereafter, 200 µl medium was removed and 50 µl luciferine substrate solution from the LucLite luminescence kit (Packard, Meriden, USA) was added. After 10 minutes (when cell lysis was complete) luminescence of each sample was counted using a Topcount microplate luminescence counter. Percentage maximal agonistic efficacy was related to the maximal efficacy of dexamethasone. Percentage maximal antagonistic efficacy was related to the maximal antagonistic efficacy of reference GR antagonist Org 34116. EC50 value was calculated by 4-parameter curve fitting using the effect of 6 compound concentrations.

[2] = molecular target: T2, His-GR-LBD (F602S mutated) (Homo sapiens, UniProt P04150, F602S); experiment: Co-factor-peptide (TIF2-3) recruitment assay; assay type: biochemical; conditions: for Emax: read-out: percentage maximal efficacy (%CV), recruitment of TIF2-3 peptide
T2 construct: E. coli produced His-GR-LBD (F602S mutated) at 10 nM; made in house; host or cells: E. coli
T2 sequence (P04150 524-758 F602S limits assumed): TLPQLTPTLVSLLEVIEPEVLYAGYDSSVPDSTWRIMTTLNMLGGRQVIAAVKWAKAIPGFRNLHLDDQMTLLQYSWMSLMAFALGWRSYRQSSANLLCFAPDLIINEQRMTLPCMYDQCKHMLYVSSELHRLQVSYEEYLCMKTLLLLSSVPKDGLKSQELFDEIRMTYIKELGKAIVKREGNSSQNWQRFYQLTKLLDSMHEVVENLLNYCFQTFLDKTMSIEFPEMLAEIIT
Protocol: Hereafter, peptide, representing Transcriptional Intermediary Factor 2 – LXXLL motif 3 (TIF2-3) at 100 nM (final concentration), streptavidin-APC (8 nM, final concentration) and anti-His-Eu (1.25 nM final concentration) were added to a total volume of 50 μL/well and incubation at 4°C was continued for another 20 hours. Fluorescence was measured using Tecan Infinite M1000 and data were analysed by GraphPad Prism.

[3] = human whole blood, P/28, prednisolone = 100%

| EC50 ([1]; Whole blood cell, human whole blood, 24 hours, read-out: EC50, enhancement of PMA/anti-CD28-induced G-CSF release) | IC50 ([1]; Whole blood cell, human whole blood, 24 hours) | EC50 (GR; CHO cells co-transfected with human GR and MMTV-luciferase, mean (±SD), read-out: EC50, MMTV-luc induction) | Max. eff., MMTV-luc induction (GR; listed as Org) | EC50 ([2]; 0.1 μM peptide, read-out: EC50 (%CV), recruitment of TIF2-3 peptide) | SMILES | Max. eff., G-CSF induction [1, 3] | Max. eff., IL-5 repression [1, 3] | Max. eff., MMTV-luc induction (GR) | Emax [2] | IC50 ([1]; Homo sapiens, Whole blood cell, 24 h) |
| --- | --- | --- | --- | --- | --- | --- | --- | --- | --- | --- |
| 186 nM | 14.4 nM | 5.1 nM | 32 (±8.1) % | 10 nM | Cc1nnsc1C(=O)N[C@H]1CCN2c3ccc(C#N)cc3[C@@H](C)c3ccccc3[C@@H]2C1 [Org 214007-0] | 39 (±7.8) % | 64 (±11) % | 32% | 67% | – |
| – | – | – | – | – | C[C@]12C=CC(=O)C=C1CC[C@@H]1[C@@H]2[C@@H](O)C[C@@]2(C)[C@H]1CC[C@]2(O)C(=O)CO [prednisolone, reference compound] | – | 100% | 100% | 100% | 6.76 nM |
